Results from paper PMC11091117, “A fluorescently-tagged tick kinin neuropeptide triggers peristalsis and labels tick midgut muscles” (Scientific Reports, 2024).

Tests used:
[1] = tested on: tick kinin receptor (CHO-K1 BMLK3 cells); assay: Fluorescence microscopy validation of labeled peptide specificity on live BMLK3 cells; format: binding, Rhipicephalus microplus
Method: BMLK3 and vector-only cells were cultured in selective media (F-12K medium containing 10% fetal bovine serum and 800 µg/mL-1 of G418 sulfate), cells were seeded in […] (CELLSTAR®, Greiner Bio-One®, Monroe, NC USA) at 20,000 cells per well and were incubated overnight. The next assay, the cell culture medium was removed, and cells were rinsed twice with 200 µl DPBS, and 180 µl of HBSS buffer was added into each well. The peptide stock solutions were prepared in 1% DMSO in HBSS at 100 µM. TMR-RK8 (20 µl) was added into each well and incubated with the cells for 5 min at room temperature. The medium was then removed with a pipette and the cells were rinsed twice with 200 µl HBSS, and DAPI (VECTASHIELD® H-1200, Vector Laboratories) was added (20 µl of 0.15 µg/ml) for visualizing the cell nuclei. Cells were rinsed twice with 200 µl of HBSS, and finally 180 µl HBSS per well was added.
The cells were immediately imaged under a Zeiss Axio Observer® inverted fluorescence microscope. The exposure time for the Bodipy-Tetramethylrhodamine-X (BPTmX) fluorescence channel was the same for BMLK3 cells and V/O cells. DAPI imaging was done subsequently using the same focal height as the BPTmx channel.

[2] = tested on: vector-only (V/O) CHO-K1 cells; assay: Cellular end-point fluorescence calcium mobilization assay, vector-only control cells; format: cell-based; settings: 10 µM peptide, Fluo-8, 29 °C, 60 s, 4 technical replicates
Text: Three peptides were used in this study. These included: 1) the ligand for the endogenous tick kinin receptor from Rhipicephalus sanguineus, Rhisa-kinin 8 peptide of sequence GTGEDQAFSPWGamide (Rhisa-K-8; RK8; of identical sequence to Rhimi-K-8 in Rhipicephalus microplus)[48], 2) the same peptide but fluorescently labeled at the N-terminus with tetramethylrhodamine (TMR) a red fluorescent dye, designated TMR-Rhisa-K-8 (TMR-RK8), and 3) a labeled peptide synthesized with the scrambled sequence of the kinin ligand, designated TMR-Scrambled. The sequence of TMR-RK8 was TMR-C-GTGEDQAFSPWGamide). The TMR-Scrambled kinin (TMR-C-GTQWGPGFEADSamide) served as a negative control for tissue labeling. […]
A fluorescence-based intracellular calcium mobilization end-point assay described by Xiong, et al.[50] was used to confirm the activity of the TMR-labeled RK8 peptide on a cell line expressing the tick kinin receptor. […] The calcium fluorescence signal was detected by a CLARIOstar (BMG LABTECH, Chicago, IL, United States) plate reader set to read at the fluorescence plate-mode with excitation and emission wavelengths of 490 and 525 nm at 29 °C. Calcium responses were read immediately after the addition of 10 µL of either TMR-RK8, unlabeled RK8, or blank solvent (1% DMSO in HBSS). […]

TMR-C-GTGEDQAFSPWGamide [TMR-RK8]
labeling of BMLK3 cells, Fig. S1 (in words) ([1]; 1 µM TMR-RK8, 5 min at room temperature, HBSS, Zeiss Axio Observer, BPTmX channel): only observed in the BLMK3 cells | receptor visualization across multiple BMLK3 cells (in words) ([1]; Figs. S1 and S2, BMLK3 cells): consistently visualized with TMR-RK8 across multiple BMLK3 cells | calcium fluorescence response of vector-only cells (in words) [2]: invariable background fluorescence
